≈ marks a conversion by molar mass, not a printed value. Read-outs that look alike come from different tables or passages of the source.
Columns and labels:
Proteus mirabilis HJ28 = experiment: Susceptibility of β-lactamase producing bacterial strains to β-lactam antibiotics in 1:1 combination (Table II); assay type: cell-based
[1] = test system: Escherischia coli HA58 (RTEM); experiment: organism not typed; assay type: cell-based
[2] = test system: Klebsiella pneumoniae HE7; experiment: Susceptibility of β-lactamase producing bacterial strains to β-lactam antibiotics in 1:1 combination (Table II); assay type: cell-based
[3] = test system: Staphylococcus aureus CJ145; experiment: as above; assay type: cell-based
[4] = test system: Staphylococcus aureus CJ9; experiment: as above; assay type: cell-based
β-lactamases = conditions: well known; cited from earlier work
[5] = as such or as hydrochloride; cited from earlier work
[6] = serial dilution in agar medium, inoculum 10^4 CFU, alone or in 1:1 combination (value of each partner), read-out: IC50
[7] = serial dilution in agar medium, inoculum 10^5 CFU, alone or in 1:1 combination (value of each partner), read-out: IC50

Row | SMILES | minimum inhibitory concentration (MIC) (Proteus mirabilis HJ28; [6]) [µg/mL] | minimum inhibitory concentration (MIC) [1] [µg/mL] | IC50 [2, 6] [µg/mL] | IC50 [3, 7] [µg/mL] | MIC [4, 7] [µg/mL] | minimum inhibitory concentration (MIC) (Proteus mirabilis HJ28) [µg/mL] | IC50 [2] [µg/mL] | IC50 [3] [µg/mL] | sensitivity to β-lactamases (β-lactamases) | MIC [4] [µg/mL] | concentration of benzylpenicillin in the udder [5] | effect in the treatment of mastitis [5]
1 | CC1(C)S[C@@H]2[C@H](NC(=O)[C@H](N)c3ccccc3)C(=O)N2[C@H]1C(=O)O [Ampicillin] | > 50 | > 100 | > 50 | 1.6 | 10 |  |  |  |  |  |  | 
2 | CC1(C)S[C@@H]2[C@H](NC(=O)Cc3ccccc3)C(=O)N2[C@H]1C(=O)O [Benzylpenicillin] |  | > 100 |  |  |  | > 100 | > 100 | 10 | very sensitive to β-lactamases | > 100 |  | 
3 | CC1(C)S[C@@H]2[C@H](/N=C/N3CCCCCC3)C(=O)N2[C@H]1C(=O)O [Mecillinam] | 6.3 | 1.3 (≈ 3.99 µM) | > 25 | > 50 | > 50 |  |  |  |  |  |  | 
4 | CCN(CC)CCOC(=O)[C@@H]1N2C(=O)[C@@H](NC(=O)Cc3ccccc3)[C@H]2SC1(C)C [Penethamate] |  |  |  |  |  |  |  |  |  |  | rapid and high concentration of benzylpenicillin in the udder | very effective in the treatment of mastitis
